These results are taken from patent US11354990B2, “Treatment of kidney diseases associated with elevated AVP” (United States Government As Represented By The Department …, priority 2017, dated 2022).

“Also recorded” adds a separate entry of the source.

The test system of one series is rodent models of ADPKD. To be noted: cited from earlier work; for cystogenesis: rodent models of ADPKD, by reducing cAMP production in the kidney. For orientation: Changes in cAMP serve as a functional read-out for many G protein-coupled receptors.
The target in a further series is T1, P2Y12 receptor (Rattus norvegicus, UniProt Q9EPX4).
T1 construct: endogenous in cells; host or cells: primary cultures of rat hypothalamic cells
T1 sequence (Q9EPX4 whole entry): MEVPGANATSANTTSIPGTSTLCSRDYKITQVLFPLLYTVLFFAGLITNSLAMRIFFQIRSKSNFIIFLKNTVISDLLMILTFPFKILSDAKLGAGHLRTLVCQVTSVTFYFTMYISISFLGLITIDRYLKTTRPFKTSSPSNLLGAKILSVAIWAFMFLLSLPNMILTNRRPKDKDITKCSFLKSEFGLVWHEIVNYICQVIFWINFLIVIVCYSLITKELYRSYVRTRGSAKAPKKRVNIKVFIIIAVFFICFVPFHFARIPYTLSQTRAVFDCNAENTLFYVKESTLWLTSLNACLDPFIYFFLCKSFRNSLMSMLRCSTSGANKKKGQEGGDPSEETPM
Put plainly: Blockade of P2Y12 receptor in primary cultures of rat hypothalamic cells: expression of AVP. The format is cell-based.

A further series relates to B6D2 mice. Put plainly: Ticagrelor in diet (or clopidogrel in drinking water) for 14 days: urinary AVP, urine output and urine osmolality in mice. The format is in vivo. To be noted: for effects shown in FIGS. 2-5 (urine output, urine osmolality, urinary AVP): comparison with other P2Y12 receptor antagonists. The protocol: The study evaluated the effect of increasing doses of ticagrelor from 0.05% to 0.25% (incremental doses of 0.05, 0.10, 0.15, 0.20 and 0.25%) administered to mice for 2 weeks and compared them with that obtained by administering increasing doses of clopidogrel bisulfate (20, 40 or 80 mg/kg bw/day). For this study adult B6D2 mice were used. Different doses of ticagrelor were administered embedded in diet. Clopidogrel bisulfate (Plavix® tablets) were powdered and dissolved in drinking water for administration. The concentration of clopidogrel in the water was adjusted on daily basis based on the water consumption by mice on the previous day.
Rodent diets containing ticagrelor at different concentrations were prepared as follows. 15 grams of ticagrelor was shipped to MP Biomedicals (Solon, Ohio, USA) for custom preparation of 10 kg of rodent chow in pellet form containing 0.15% ticagrelor. The custom-made diet was received and was stored at +4° C. Later in the study, for the preparation of diets containing 0.20% or 0.25%, the above custom-prepared diet (containing 0.15% ticagrelor) was used as a base and the required amount of ticagrelor was added. Diets containing 0.05 and 0.10% ticagrelor were prepared de novo.
Clopidogrel bisulfate was administered orally by mixing finely powdered Plavix® tablets (Bristol-Myers Squibb, New York, N.Y.) in drinking water. The concentration of the drug in the drinking water was adjusted daily based on the water consumption of the animals on the previous day. Three different doses (20, 40 and 80 mg/kg bw/day) were administered. Since it is not possible to work with more than 15 to 20 mice in metabolic cages at any given time, the experimental animals were handled in two batches in a staggered fashion. Urine samples were collected on day 0 (prior to the experimental period), on days 6/7 (end of the first week) and days 13/14 (end of the second week). Terminal blood samples were collected from the posterior vena cava at the time of euthanasia. Kidney tissues were collected and cortex and medulla were separated by sharp dissection and flash frozen for analysis. Within a few minutes after collection, blood samples were centrifuged at +4° C. and plasma was separated and frozen. Urinary AVP levels were assayed by ELISA.
(§1) Different doses of ticagrelor (0.05 to 0.25%) were administered to mice embedded in standard rodent chow (w/w) for 14 days. Twenty-four hour urine samples were collected from the mice by placing them in individual plastic metabolic cages (1 mouse/cage) for two consecutive days, with free access to food and water. Urine samples in the metabolic cages were collected under a layer of light mineral oil. The volumes of urine samples collected were recorded. Urine samples were centrifuged to remove particulate matter. Clear supernatants thus obtained were used for analysis. Blood samples were collected at the time of euthanasia on day 14, as per the protocol recommended by the AstraZeneca for samples destined for the determination of plasma ticagrelor. Briefly, under isoflourane anesthesia, blood from the posterior vena cava was collected and transferred to EDTA K-coated microtubes (Microvette®, Sarstedt, Nümbrecht, Germany). Plasma was separated by centrifugation within 30 min after collection and frozen at −80° C. The frozen samples were shipped in dry ice by FedEx to AstraZeneca (Mölndal, Sweden). At AstraZeneca R&D, the plasma concentration of ticagrelor was determined by liquid chromatography tandem mass spectrometry (LC-MS/MS). FIGS. 1-5 show the data obtained.

Series [1] relates to lithium-induced NDI in rodent models. To be noted: cited from earlier work.
Series [2] concerns cAMP production in primary cultures of rat IMCD cells. Nature of the series: dDAVP-induced cAMP production in primary cultures of rat IMCD cells (EIA). The format is cell-based. The method, then: FIG. 7 is a graph showing the effect of ticagrelor on dDAVP-induced cAMP production in primary cultures of rat IMCD cells: Cells were incubated for 48 h with ticagrelor (5 μM). During the second 24 hours, cells were challenged with dDAVP (20 nM).
dDAVP acting through the vasopressin V2 receptor in IMCD cells stimulates the production of cAMP (FIG. 7). In the collecting ducts in vivo, in the short-term AVP increases cellular cAMP levels to cause translocation of AQP2 protein from the subapical vesicles to apical plasma membrane, and thus increase the water permeability of the apical plasma membrane, the rate limiting barrier for transepithelial water transport. In the long-term, increased cellular cAMP levels induce transcriptional activation of AQP2 and other genes. […] Primary cultures of rat IMCD cells were prepared and incubated with desmopressin with/without ticagrelor (5 μM) as described above. For cAMP assay, the medium was gently aspirated, 200 μl of 0.1 M HCl was added to each insert and incubated for 20 min at room temperature. Then cells were scrapped off the semi-permeable support and lysed by pipetting up and down. The cell lysate was centrifuged at 1,000×g for 10 min. cAMP concentration in the supernatant was determined by an EIA kit (Cayman Chemical Co.) and normalized to the protein content of the wells (Pierce™ BCA Protein Assay Kit, Rockford, Ill.).

The subject of another series is AQP2. Put plainly: dDAVP-induced AQP2 mRNA expression in primary cultures of rat IMCD cells (real-time PCR). The format is cell-based. The protocol:
(§2) FIGS. 6A-C show the effect of ticagrelor on the mRNA expression of AQP2 (A) and AQP3 (B) relative to the expression R3-actin and the effect of ticagrelor on the mRNA expression of AQP2 relative to GAPDH (C) in primary cultures of rat inner medullary collecting duct (IMCD) cells. Cells were incubated with different concentrations of ticagrelor (0.5 to 25 μM) for 48 hours. During the second 24 hours, the cells were challenged with dDAVP (20 nM). The numbers in parentheses above the bars indicate the number of culture wells.
(§3) Primary cultures of rat inner medullary collecting duct (IMCD) cells were prepared. When the cells became 70-80% confluent, the medium was changed to relative starvation mode (low FBS), and used for testing the effect of Desmopressin (dDAVP), a V2 receptor-selective analogue of AVP, and/or ticagrelor. Cells were incubated for 48 h with ticagrelor ranging from 1.5 to 25 μM. During the second 24 hours, cells were challenged with dDAVP (20 nM). At the end of the incubation period, cells were harvested, RNA extracted, reverse transcribed and subjected to real-time PCR to determine the expression of AQP2 and AQP3 genes relative to the expression of the housekeeping genes (β-actin or GAPDH).
(§4) Results (FIGS. 6A-C) are presented as percent of the values in control incubations without any addition of agents. FIGS. 6A-C show the effect of different concentrations of ticagrelor on dDAVP (20 nM)-induced AQP2 or AQP3 expression relative to p-actin expression in primary cultures of rat IMCD cells. Two independent assays on primary cultures of IMCD cells derived from two different rats at different times were used, and the data obtained were pooled for analysis and presentation in the graphs. Data were analyzed by analysis of variance (ANOVA) followed by Tukey-Kramer Multiple Comparison Test. The numbers in parentheses above the bars indicate the number of culture wells.
A general note: In qPCR the cycle at which signal appears reflects the starting amount.

A short description of series [3]: Plasma concentration of ticagrelor by LC-MS/MS in mice fed ticagrelor. The series is classed as in vivo. To be noted: corresponding to a dose of 0.15% or above in food, day 14. The method, then: as §1
Another series deals with AQP3. Put plainly: dDAVP-induced AQP3 mRNA expression in primary cultures of rat IMCD cells (real-time PCR). The format is cell-based. The protocol:
as §2, §3, §4

The conditions of series [4]: patients; long-term administration; cited from earlier work.
For series [5], the system named is medullary collecting duct cells. Nature of the series: Proliferation of medullary collecting duct cells. The series is classed as cell-based. To be noted: increasing concentrations of ticagrelor.
The conditions of series [6]: in vivo; cited from earlier work.
Series [7] concerns DBA/2FG-pcy mouse model of ADPKD. To be noted: tolvaptan concentrations between 0.01% and 0.30% in food; cited from earlier work.
For the next series, the target named is CYP3A4 system (Homo sapiens, UniProt P08684). To be noted: cited from earlier work.
Sequence of CYP3A4 system (P08684 whole entry): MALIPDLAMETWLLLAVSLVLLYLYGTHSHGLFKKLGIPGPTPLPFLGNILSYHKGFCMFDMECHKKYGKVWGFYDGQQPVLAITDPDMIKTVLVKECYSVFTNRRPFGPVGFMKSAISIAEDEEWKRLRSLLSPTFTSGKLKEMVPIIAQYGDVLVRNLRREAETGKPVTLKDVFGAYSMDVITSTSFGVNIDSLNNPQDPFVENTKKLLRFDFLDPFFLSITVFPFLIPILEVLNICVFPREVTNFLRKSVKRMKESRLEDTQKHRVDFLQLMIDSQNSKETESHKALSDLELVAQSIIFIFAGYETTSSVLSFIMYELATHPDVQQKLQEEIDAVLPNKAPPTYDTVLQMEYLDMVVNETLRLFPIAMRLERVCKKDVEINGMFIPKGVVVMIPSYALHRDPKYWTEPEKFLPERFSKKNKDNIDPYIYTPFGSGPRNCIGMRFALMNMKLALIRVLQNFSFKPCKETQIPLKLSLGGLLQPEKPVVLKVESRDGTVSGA
Another series relates to ADPKD. To be noted: clinical trials; cited from earlier work.
The target in a further series is vasopressin V2 receptor (Homo sapiens, UniProt P30518). To be noted: chronic blockade of vasopressin V2 receptor; cited from earlier work.
Sequence of vasopressin V2 receptor (P30518 whole entry, species assumed): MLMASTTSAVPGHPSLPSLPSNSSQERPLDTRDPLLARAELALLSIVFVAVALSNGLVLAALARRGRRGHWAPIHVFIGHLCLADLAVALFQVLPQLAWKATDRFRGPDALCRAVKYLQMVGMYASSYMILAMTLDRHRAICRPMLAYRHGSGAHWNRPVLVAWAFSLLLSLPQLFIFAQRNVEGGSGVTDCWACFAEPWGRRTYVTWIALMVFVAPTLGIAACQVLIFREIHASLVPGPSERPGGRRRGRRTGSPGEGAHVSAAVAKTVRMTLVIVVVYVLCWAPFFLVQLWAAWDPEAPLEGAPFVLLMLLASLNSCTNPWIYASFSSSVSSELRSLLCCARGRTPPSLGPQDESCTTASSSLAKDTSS
Setting [8] is: different concentrations of ticagrelor 48 h, dDAVP 20 nM during second 24 h.
Setting [9] is: different concentrations of ticagrelor 48 h, dDAVP 20 nM during second 24 h, listed as Ticagrelor.
The mark [10] stands for this setting: ticagrelor 2 μM, listed as Ticagrelor.
The mark [11] stands for this setting: ticagrelor 10 μM, listed as Ticagrelor.
[12] abbreviates: ticagrelor 0.05 to 0.25% in food, 14 days.

As to `Cc1ccccc1C(=O)Nc1ccc(C(=O)N2CCCC(N(C)C)c3ccccc32)cc1` (stereo not drawn) [OPC-31260], the cystogenesis entry with rodent models of ADPKD was “consistently inhibited”.
On to `Nc1c(S(=O)(=O)O)cc(Nc2ccc(Nc3ccccc3)c(S(=O)(=O)O)c2)c2c1C(=O)c1ccccc1C2=O` [PSB-0739], for which the “expression of AVP” value at P2Y12 receptor is “increased”.
On to `COC(=O)[C@H](c1ccccc1Cl)N1CCc2sccc2C1` [clopidogrel, clopidogrel bisulfate], for which the “effects shown in FIGS. 2-5 (urine output, urine osmolality, urinary AVP)” value with B6D2 mice is on record as “could not be seen”. In the series with B6D2 mice (mouse, in vivo), the “effect on the production of AVP by the hypothalamus” value is listed as “did not have such an effect”. The “lithium-induced NDI” value in series [1] is “significantly ameliorate”.
For the compound `NC(=O)CC[C@@H]1NC(=O)[C@H](Cc2ccccc2)NC(=O)[C@H](Cc2ccc(O)cc2)NC(=O)CCSSC[C@@H](C(=O)N2CCC[C@H]2C(=O)N[C@H](CCCN=C(N)N)C(=O)NCC(N)=O)NC(=O)[C@H](CC(N)=O)NC1=O` [desmopressin, Desmopressin], the “increase in cellular cAMP levels” value in series [2] (20 nM desmopressin, IMCD cells) worked out at 3.6 fold.
As for `CC(=O)Oc1cc2c(s1)CCN(C(C(=O)C1CC1)c1ccccc1F)C2` (stereo not drawn) [prasugrel], the “effects shown in FIGS. 2-5 (urine output, urine osmolality, urinary AVP)” value in the series with B6D2 mice was “could not be seen”.
Take `CCCSc1nc(N[C@@H]2C[C@H]2c2ccc(F)c(F)c2)c2nnn([C@@H]3C[C@H](OCCO)[C@@H](O)[C@H]3O)c2n1` [ticagrelor]: the “effect on dDAVP-induced AQP2 mRNA expression” value in the series on AQP2 (setting [8]) is reported as “augmented”; with AQP2 (setting [9]), “tendency for concentration-dependent enhancement”; in the series with AQP2 (ticagrelor 2 μM), “augmentative effect was seen; also recorded: tendency to augment”; in the series on AQP2 (setting [10]) it was “statistically significant”; with AQP2 (ticagrelor 10 μM), “more prominent”; in the series on AQP2 (setting [11]) it was “statistically significant”. Moreover, the “effect on dDAVP-induced increase in AQP2 expression” value with AQP2 (ticagrelor 5 μM) was “did not suppress”. Further, in the series with AQP2 (ticagrelor 25 μM), the “effect on AQP2 gene expression” value is listed as “suppressing the gene expression to a very low level; also recorded: almost completely suppressed”. Moreover, in [3], the “plasma ticagrelor level above which the relation to urine osmolality and AVP was more pronounced” value is reported as “above 1.30 μM”. In addition, the “urinary AVP (vasopressin)” value in the series with B6D2 mice (0.25% ticagrelor in the food) is “marked decrease”. Further, the urine concentrating ability result in the series on B6D2 mice (0.25% ticagrelor in the food) is “significant reduction”. In addition, in the series with B6D2 mice (lower doses of ticagrelor in the food), the “urinary AVP” value was “minimal effect”. In addition, the urine osmolality entry in the series with B6D2 mice (setting [12]) is “decrease”. In addition, the urine output entry with B6D2 mice (setting [12]) is “increase”. Moreover, in the series on B6D2 mice (ticagrelor 0.05 to 0.25% in food, 14 days, 24-hour urine, normal mice), the “urinary AVP excretion” value was “dose-related decrease; also recorded: dose-dependent decrease”. For the same compound, the urinary concentrating ability entry in the series on B6D2 mice (ticagrelor 0.05 to 0.25% in food, 14 days, assessed by urine output and osmolality) is “dose-related decrease; also recorded: dose-dependent decrease”. The “effect on desmopressin-induced cAMP levels” value in series [2] (5 μM ticagrelor, 48 h, dDAVP 20 nM) is listed as “did not have any significant effect”. Moreover, the “effect on dDAVP-induced AQP3 mRNA expression” value in the series with AQP3 (setting [8]) is “augmented”; in the series with AQP3 (setting [9]), “tendency for concentration-dependent enhancement”; in the series with AQP3 (ticagrelor 2 μM), “augmentative effect was seen; also recorded: tendency to augment”; in the series with AQP3 (setting [10]) it was “statistically significant”; in the series on AQP3 (ticagrelor 10 μM), “more prominent”; in the series on AQP3 (setting [11]), “statistically significant”. For the same compound, the “effect on dDAVP-induced increase in AQP3 expression” value in the series on AQP3 (ticagrelor 5 μM) is on record as “did not suppress”. For the same compound, in the series with AQP3 (ticagrelor 25 μM), the “effect on AQP3 gene expression” value was “suppressing the gene expression to a very low level; also recorded: almost completely suppressed”. Also, the side effects result in series [4] is “uncontrolled bleeding from wounds or internal ulcers”. In series [5], the “proliferation of medullary collecting duct cells” value is given as “decrease”.
On to `Cc1ccccc1C(=O)Nc1ccc(C(=O)N2CCCC(O)c3cc(Cl)ccc32)c(C)c1` (stereo not drawn) [tolvaptan], for which the pharmacokinetics result in series [6] is “dose-related pharmacokinetics, it is unpredictable in ADPKD patients”. The “optimum concentration in food” value in series [7] is on record as 0.10%. Also, the cyst growth entry with rodent models of ADPKD (experimental models of ADPKD) is given as “slow down the cyst growth”. Further, in the series with rodent models of ADPKD, the cystogenesis result is “consistently inhibited”. Besides, on CYP3A4 system, the metabolism entry is recorded as “metabolized by the CYP3A4 system”. Also, the “efficacy for the treatment of ADPKD” value in the series on ADPKD is reported as “established”. Further, the side effects result in [4] is “severe polyuria (loss of water in the urine), nocturia (frequent urination in the night), thirst and dry mouth; also recorded: constipation, loss of appetite, dry skin, nausea, vomiting, and potential for acute liver failure”. Also, the “endogenous production of AVP” value at vasopressin V2 receptor is “increased”.
